Literature values, collected in patent US5041644A, “Peptide derivatives of β-chloro-L(Z)-dehydro-glutamic acid” (Merck & Co., Inc., priority 1987, dated 1991).

What was measured:
[1] = system: D-Alanyl-D-Alanine ligase (synthetase); conditions: at both the donor and acceptor sites; most potent ligase inhibitor described heretofore
[2] = system: Micrococcus luteus; conditions: very narrow antibacterial spectrum; activity practically limited only to Micrococcus luteus

Compound | inhibition of the ligase [1] | antibacterial activity [2]
N[C@@H]1CONC1=O [D-Cycloserine] | reversible inhibitor | –
N[C@@H](C(=O)O)/C(Cl)=C/C(=O)O [β-chloro-L-(Z)-dehydroglutamic acid] | – | shows an antibacterial activity
